This assay has as its target ALK5 (Homo sapiens (Human), UniProt P36897). The experiment in a line: Cell-free assay for inhibition of ALK5 kinase phosphorylation. To be noted: read-out: IC50 on ALK5 kinase phosphorylation. The format is biochemical.
Chain of ALK5 (P36897 34-503): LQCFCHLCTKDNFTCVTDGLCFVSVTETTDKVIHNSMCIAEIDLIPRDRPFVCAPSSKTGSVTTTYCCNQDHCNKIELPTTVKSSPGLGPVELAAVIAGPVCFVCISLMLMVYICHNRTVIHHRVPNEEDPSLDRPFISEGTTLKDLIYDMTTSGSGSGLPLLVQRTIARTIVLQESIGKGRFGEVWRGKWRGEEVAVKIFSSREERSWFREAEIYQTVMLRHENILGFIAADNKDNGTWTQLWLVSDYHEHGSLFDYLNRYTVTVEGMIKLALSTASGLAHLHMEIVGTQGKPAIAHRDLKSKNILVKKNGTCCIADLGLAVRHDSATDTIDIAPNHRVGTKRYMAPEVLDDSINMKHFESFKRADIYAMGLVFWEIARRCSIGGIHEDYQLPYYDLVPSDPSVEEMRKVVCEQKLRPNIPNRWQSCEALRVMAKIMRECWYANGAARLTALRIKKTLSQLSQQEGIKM
Experimental: ALK5 protein was expressed in Sf9 insect cells as human recombinant GST-fusion protein using the baculovirus expression system. Expressed protein was purified by affinity chromatography using GSH-agarose (Sigma-Aldrich). Kinase assay was performed in 96-well FlashPlates™ from Perkin Elmer (Boston, Mass., USA) in a 50 μL reaction volume. The reaction cocktail was pipetted in four steps in the following order: 20 μL of assay buffer (standard buffer), 5 μL of ATP solution in H2O, 5 μL of each test compounds of formula (I) in 10% DMSO, 10 μL of GSK3 (14-27) (200 ng)/10 μL of ALK5 solution (1 ng) (premixed). The reaction cocktail contained 60 mM HEPES-NaOH, pH 7.5, 3 mM MgCl2, 3 mM MnCl2, 3 Na3VO4, 1.2 mM DTT, 50 μg/mL PEG20000, 1 μM [γ-^33P]-ATP (approximately 2.5×10^5 cpm per well), 200 ng/10 μL GSK3 (14-27), and 1 ng/10 μL ALK5. The reaction cocktail was incubated at 30° C. for 60 min. The reaction was stopped with 50 μL of 2% (v/v) H3PO4, and plates were aspirated and washed two times with 200 μL 0.9% (w/v) NaCl. Assay was performed with a BeckmanCoulter Biomek 2000 robotic system. Incorporation of ^33Pi (counting of “cpm”) was determined with a microplate scintillation counter (Microbeta, Wallac).
In general, IC50 refers to the point on the concentration scale where inhibition reaches its midpoint. With `Cc1cccc(-c2[nH]c(CNc3ccccc3)nc2-c2ccc3ncnn3c2)n1` [Example 1, N-((4-([1,2,4]triazolo[1,5-a]pyridin-6-yl)-5-(6-methylpyridin-2-yl)-1H-imidazol-2-yl)methyl)aniline], the IC50 was 13.1 nM.
Under `Cc1cccc(-c2[nH]c(CNc3cccc(F)c3)nc2-c2ccc3ncnn3c2)n1` [Example 5, N-((4-([1,2,4]triazolo[1,5-a]pyridin-6-yl)-5-(6-methylpyridin-2-yl)-1H-imidazol-2-yl)methyl)-3-fluoroaniline] stands 9.41 nM; under `Cc1cccc(-c2[nH]c(CNc3ccc(F)cc3)nc2-c2ccc3ncnn3c2)n1` [Example 6, N-((4-([1,2,4]triazolo[1,5-a]pyridin-6-yl)-5-(6-methylpyridin-2-yl)-1H-imidazol-2-yl)methyl)-4-fluoroaniline], 17.4 nM.
Turning to `Cc1cccc(-c2[nH]c(CNc3cccc(F)c3F)nc2-c2ccc3ncnn3c2)n1` [Example 7, N-((4-([1,2,4]triazolo[1,5-a]pyridin-6-yl)-5-(6-methylpyridin-2-yl)-1H-imidazol-2-yl)methyl)-2,3-difluoroaniline], the IC50 was 8.96 nM.
Under `Cc1cccc(-c2[nH]c(CNc3ccc(F)c(F)c3)nc2-c2ccc3ncnn3c2)n1` [Example 8, N-((4-([1,2,4]triazolo[1,5-a]pyridin-6-yl)-5-(6-methylpyridin-2-yl)-1H-imidazol-2-yl)methyl)-3,4-difluoroaniline] stands 9.84 nM; under `Cc1cccc(-c2[nH]c(CNc3cc(F)cc(F)c3)nc2-c2ccc3ncnn3c2)n1` [Example 9, N-((4-([1,2,4]triazolo[1,5-a]pyridin-6-yl)-5-(6-methylpyridin-2-yl)-1H-imidazol-2-yl)methyl)-3,5-difluoroaniline], 6.39 nM.
Under `Cc1cccc(-c2[nH]c(CNc3ccccc3Cl)nc2-c2ccc3ncnn3c2)n1` [Example 10, N-((4-([1,2,4]triazolo[1,5-a]pyridin-6-yl)-5-(6-methylpyridin-2-yl)-1H-imidazol-2-yl)methyl)-2-chloroaniline] stands 9.41 nM.
Take `Cc1cccc(-c2[nH]c(CNc3cccc(Cl)c3)nc2-c2ccc3ncnn3c2)n1` [Example 12, N-((4-([1,2,4]triazolo[1,5-a]pyridin-6-yl)-5-(6-methylpyridin-2-yl)-1H-imidazol-2-yl)methyl)-3-chloroaniline]: the IC50 was determined as 6.16 nM.
In the case of `Cc1cccc(-c2[nH]c(CNc3ccc(Cl)cc3)nc2-c2ccc3ncnn3c2)n1` [Example 14, N-((4-([1,2,4]triazolo[1,5-a]pyridin-6-yl)-5-(6-methylpyridin-2-yl)-1H-imidazol-2-yl)methyl)-4-chloroaniline], the IC50 worked out at 10.7 nM.
Consider `Cc1cccc(-c2[nH]c(CNc3cccc(Cl)c3Cl)nc2-c2ccc3ncnn3c2)n1` [Example 15, N-((4-([1,2,4]triazolo[1,5-a]pyridin-6-yl)-5-(6-methylpyridin-2-yl)-1H-imidazol-2-yl)methyl)-2,3-dichloroaniline], for which the IC50 is 12.3 nM.
Under `Cc1cccc(-c2[nH]c(CNc3ccc(Cl)c(Cl)c3)nc2-c2ccc3ncnn3c2)n1` [Example 16, N-((4-([1,2,4]triazolo[1,5-a]pyridin-6-yl)-5-(6-methylpyridin-2-yl)-1H-imidazol-2-yl)methyl)-3,4-dichloroaniline] stands 7.54 nM.
In the case of `Cc1cccc(-c2[nH]c(CNc3cc(Cl)cc(Cl)c3)nc2-c2ccc3ncnn3c2)n1` [Example 17, N-((4-([1,2,4]triazolo[1,5-a]pyridin-6-yl)-5-(6-methylpyridin-2-yl)-1H-imidazol-2-yl)methyl)-3,5-dichloroaniline], the IC50 worked out at 14.6 nM.
In the case of `Cc1cccc(-c2[nH]c(CNc3ccccc3Br)nc2-c2ccc3ncnn3c2)n1` [Example 18, N-((4-([1,2,4]triazolo[1,5-a]pyridin-6-yl)-5-(6-methylpyridin-2-yl)-1H-imidazol-2-yl)methyl)-2-bromoaniline] it was 6.54 nM; in that of `Cc1cccc(-c2[nH]c(CNc3cccc(Br)c3)nc2-c2ccc3ncnn3c2)n1` [Example 20, N-((4-([1,2,4]triazolo[1,5-a]pyridin-6-yl)-5-(6-methylpyridin-2-yl)-1H-imidazol-2-yl)methyl)-3-bromoaniline], 4.53 nM; in that of `Cc1cccc(-c2[nH]c(CNc3ccc(Br)cc3)nc2-c2ccc3ncnn3c2)n1` [Example 22, N-((4-([1,2,4]triazolo[1,5-a]pyridin-6-yl)-5-(6-methylpyridin-2-yl)-1H-imidazol-2-yl)methyl)-4-bromoaniline], 17.1 nM.
Regarding `Cc1cccc(-c2[nH]c(CNc3ccccc3C)nc2-c2ccc3ncnn3c2)n1` [Example 23, N-((4-([1,2,4]triazolo[1,5-a]pyridin-6-yl)-5-(6-methylpyridin-2-yl)-1H-imidazol-2-yl)methyl)-2-methylaniline], the IC50 turned out to be 13.9 nM.
In the case of `Cc1cccc(NCc2nc(-c3ccc4ncnn4c3)c(-c3cccc(C)n3)[nH]2)c1` [Example 24, N-((4-([1,2,4]triazolo[1,5-a]pyridin-6-yl)-5-(6-methylpyridin-2-yl)-1H-imidazol-2-yl)methyl)-3-methylaniline], the IC50 was determined as 9.07 nM.
Under `Cc1ccc(NCc2nc(-c3ccc4ncnn4c3)c(-c3cccc(C)n3)[nH]2)cc1` [Example 26, N-((4-([1,2,4]triazolo[1,5-a]pyridin-6-yl)-5-(6-methylpyridin-2-yl)-1H-imidazol-2-yl)methyl)-4-methylaniline] stands 15.6 nM; under `Cc1cccc(-c2[nH]c(CNc3cccc(C)c3C)nc2-c2ccc3ncnn3c2)n1` [Example 27, N-((4-([1,2,4]triazolo[1,5-a]pyridin-6-yl)-5-(6-methylpyridin-2-yl)-1H-imidazol-2-yl)methyl)-2,3-dimethylaniline], 18 nM.
In the case of `Cc1cccc(-c2[nH]c(CNc3ccc(C)c(C)c3)nc2-c2ccc3ncnn3c2)n1` [Example 28, N-((4-([1,2,4]triazolo[1,5-a]pyridin-6-yl)-5-(6-methylpyridin-2-yl)-1H-imidazol-2-yl)methyl)-3,4-dimethylaniline] it was 17.4 nM; in that of `Cc1cc(C)cc(NCc2nc(-c3ccc4ncnn4c3)c(-c3cccc(C)n3)[nH]2)c1` [Example 29, N-((4-([1,2,4]triazolo[1,5-a]pyridin-6-yl)-5-(6-methylpyridin-2-yl)-1H-imidazol-2-yl)methyl)-3,5-dimethylaniline], 14.3 nM.
In the case of `CCc1ccccc1NCc1nc(-c2ccc3ncnn3c2)c(-c2cccc(C)n2)[nH]1` [Example 30, N-((4-([1,2,4]triazolo[1,5-a]pyridin-6-yl)-5-(6-methylpyridin-2-yl)-1H-imidazol-2-yl)methyl)-2-ethylaniline] it was 10.6 nM; in that of `CCc1cccc(NCc2nc(-c3ccc4ncnn4c3)c(-c3cccc(C)n3)[nH]2)c1` [Example 31, N-((4-([1,2,4]triazolo[1,5-a]pyridin-6-yl)-5-(6-methylpyridin-2-yl)-1H-imidazol-2-yl)methyl)-3-ethylaniline], 8.01 nM; in that of `Cc1cccc(-c2[nH]c(CNc3ccccc3C(C)C)nc2-c2ccc3ncnn3c2)n1` [Example 33, N-((4-([1,2,4]triazolo[1,5-a]pyridin-6-yl)-5-(6-methylpyridin-2-yl)-1H-imidazol-2-yl)methyl)-2-isopropylaniline], 14.2 nM.
`Cc1cccc(-c2[nH]c(CNc3cccc(C(C)C)c3)nc2-c2ccc3ncnn3c2)n1` [Example 34, N-((4-([1,2,4]triazolo[1,5-a]pyridin-6-yl)-5-(6-methylpyridin-2-yl)-1H-imidazol-2-yl)methyl)-3-isopropylaniline]: the half-maximal inhibitory concentration (IC50) was 16.2 nM.
In the case of `Cc1cccc(-c2[nH]c(CNc3ccc(C(C)C)cc3)nc2-c2ccc3ncnn3c2)n1` [Example 35, N-((4-([1,2,4]triazolo[1,5-a]pyridin-6-yl)-5-(6-methylpyridin-2-yl)-1H-imidazol-2-yl)methyl)-4-isopropylaniline] it was 46 nM; in that of `C=Cc1ccccc1NCc1nc(-c2ccc3ncnn3c2)c(-c2cccc(C)n2)[nH]1` [Example 36, N-((4-([1,2,4]triazolo[1,5-a]pyridin-6-yl)-5-(6-methylpyridin-2-yl)-1H-imidazol-2-yl)methyl)-2-vinylaniline], 14.2 nM; in that of `C=Cc1cccc(NCc2nc(-c3ccc4ncnn4c3)c(-c3cccc(C)n3)[nH]2)c1` [Example 37, N-((4-([1,2,4]triazolo[1,5-a]pyridin-6-yl)-5-(6-methylpyridin-2-yl)-1H-imidazol-2-yl)methyl)-3-vinylaniline], 11.9 nM.
Take `C=Cc1ccc(NCc2nc(-c3ccc4ncnn4c3)c(-c3cccc(C)n3)[nH]2)cc1` [Example 40, N-((4-([1,2,4]triazolo[1,5-a]pyridin-6-yl)-5-(6-methylpyridin-2-yl)-1H-imidazol-2-yl)methyl)-4-vinylaniline]: the IC50 stood at 29.6 nM.
In the case of `COc1ccccc1NCc1nc(-c2ccc3ncnn3c2)c(-c2cccc(C)n2)[nH]1` [Example 42, N-((4-([1,2,4]triazolo[1,5-a]pyridin-6-yl)-5-(6-methylpyridin-2-yl)-1H-imidazol-2-yl)methyl)-2-methoxyaniline] it was 14.4 nM; in that of `COc1cccc(NCc2nc(-c3ccc4ncnn4c3)c(-c3cccc(C)n3)[nH]2)c1` [Example 43, N-((4-([1,2,4]triazolo[1,5-a]pyridin-6-yl)-5-(6-methylpyridin-2-yl)-1H-imidazol-2-yl)methyl)-3-methoxyaniline], 14.3 nM.
In the case of `COc1ccc(NCc2nc(-c3ccc4ncnn4c3)c(-c3cccc(C)n3)[nH]2)cc1` [Example 44, N-((4-([1,2,4]triazolo[1,5-a]pyridin-6-yl)-5-(6-methylpyridin-2-yl)-1H-imidazol-2-yl)methyl)-4-methoxyaniline] it was 48.1 nM; in that of `COc1cccc(NCc2nc(-c3ccc4ncnn4c3)c(-c3cccc(C)n3)[nH]2)c1OC` [Example 45, N-((4-([1,2,4]triazolo[1,5-a]pyridin-6-yl)-5-(6-methylpyridin-2-yl)-1H-imidazol-2-yl)methyl)-2,3-dimethoxyaniline], 57.5 nM.
